Measured values taken from patent US20090030086A1, “ANTIMICROBIAL AGENTS” (priority 2005, published 2009).
Values after ≈ are worked out from the molar mass of the structure shown. Read-outs that look alike come from different tables or passages of the source.

Experiments:
[1] = system: S. aureus ATCC 29213; assay: MIC assay; assay type: cell-based, Staphylococcus aureus
Experimental: 1. Staphylococcus aureus—the principal staphylococcal test micro-organism used in these studies was Staphylococcus aureus ATCC 29213. This strain is the one recommended for QC/QA purposes in Minimum Inhibitory Concentration (MIC) assays by the US Clinical and Laboratory Standards Institute (formerly the NCCLS), an FDA-recognised body.
(§1) The staphylococci and enterococci were cultured and maintained on Mueller-Hinton Medium (agar and broth) at pH 7.2; they were incubated aerobically at 37° C. for 24 hours.
(§2) This is a standard international method for quantitatively assessing the antimicrobial activity of a compound in a liquid medium. The method used a 96-well microtitre plate, capable of holding about 200 μl of liquid per well. […] The culture media were as described above for the relevant test organisms.
(§3) The wells were inoculated with a liquid suspension of freshly grown micro-organism and incubated under the conditions described above. After incubation, the microtitre plate was examined visually (with the aid of a light box) for cloudiness in each well, which would indicate microbial growth. The MIC value was recorded as the lowest concentration of test compound required to inhibit microbial growth, i.e., the lowest concentration for which the liquid in the well remained clear.
(§4) The assays were conducted in duplicate and included both negative (culture medium only) and positive (culture medium, diluting solvent and inoculum) controls.
(§5) The following experiments all used S. aureus ATCC 29213 as the test organism. MIC, MBC and DDA assays, as described above, were carried out using a range of different benzoquinones and hydroquinones. Supplemented DDA assays, in the presence of salt, lipid and blood, were also conducted.

[2] = system: S. aureus ATCC 29213; assay: MBC assay; assay type: cell-based, Staphylococcus aureus
Experimental: as §1
(§6) This assay, normally carried out after an MIC assay, determines the minimum concentration of a compound that is lethal to the micro-organism being tested.
(§7) These samples were then individually sub-cultured on non-selective agar medium, under the incubation conditions described above. Following incubation they were examined visually for bacterial growth.
as §5

[3] = system: S. aureus ATCC 29213; assay: Disc diffusion assay (DDA); assay type: cell-based, Staphylococcus aureus; settings: for DDA (diameter of zone of inhibition): S. aureus ATCC 29213, unsupplemented agar, 200 μg per disc (thymoquinone 50 μg, 2,6-dimethoxy-p-benzoquinone 100 μg); for zone of inhibition at 200 µg/disc: Staphylococcus aureus, ATCC29213, read-out: DDA (diameter of zone of inhibition)
Experimental: as §1
(§8) A sterile paper disc was impregnated with a sample of the test compound and a minimum of 30 minutes allowed for the solvents to evaporate as far as possible. The disc was then placed on an agar plate onto which the test micro-organism had been inoculated. The plate was then incubated under the conditions described above, following which it was examined visually for signs of bacterial growth. […] The diameter of this zone of “inhibition” was measured using a ProtoCOL™ automated zone sizer (Synbiosis, Cambridge, UK).
(§9) The area of the zone of inhibition was calculated from the measured zone diameter (D) using the formula π(D/2)^2.
(§10) For most DDA assays, 200 μg of each compound was loaded onto each disc.

[4] = system: S. aureus ATCC 29213; assay: Supplemented disc diffusion assay; assay type: cell-based, Staphylococcus aureus; settings: for DDA + lipid / DDA + blood / DDA + salt: S. aureus ATCC 29213, 200 μg per disc (thymoquinone 50 μg, 2,6-dimethoxy-p-benzoquinone 100 μg); for DDA + lipid: Tween 80 at 1% v/v; for DDA + blood: defibrinated horse blood 5% v/v; for DDA + salt: sodium chloride 100 mM; for zone of inhibition at 200 µg/disc: Staphylococcus aureus, ATCC29213, 24 h
Experimental: as §1, §8
(§11) Performance under these conditions can provide a more reliable indication of activity on topical application. For assays conducted using S. aureus strains, the supplements were defibrinated horse blood (5% v/v), lipid (Tween™ 80 at 1% v/v) and sodium chloride (100 mM). For those using Propionibacterium spp. strains, the supplements were lipid (Tween™ 80 at 1% v/v) and sodium chloride (100 mM).
as §5, §10

[5] = system: P. acnes NCTC 737; assay: MIC assay; assay type: cell-based, Propionibacterium acnes
Experimental: 2. Propionibacterium spp.—the principal propionibacterial strain used in these studies was Propionibacterium acnes NCTC 737.
(§12) The Propionibacterium spp organisms were cultured and maintained on Wilkins-Chalgren Anaerobe Medium (agar and broth) at pH 6.0; cultures were incubated anaerobically at 37° C. for 72 hours.
as §2, §3, §4
(§13) MIC, MBC and DDA assays, as described above, were carried out using a range of different benzoquinones and hydroquinones. Supplemented DDA assays, in the presence of salt and lipid, were also conducted.

[6] = system: P. acnes NCTC 737; assay: MBC assay; assay type: cell-based, Propionibacterium acnes
Experimental: as §12, §6, §7, §13

[7] = system: P. acnes NCTC 737; assay: Disc diffusion assay (DDA); assay type: cell-based, Propionibacterium acnes; settings: for DDA (diameter of zone of inhibition): P. acnes NCTC 737, unsupplemented agar, 200 μg per disc (2,6-dimethoxy-p-benzoquinone 100 μg); for zone of inhibition at 200 µg/disc: Cutibacterium acnes, NCTC737, read-out: DDA (diameter of zone of inhibition)
Experimental: as §12, §8, §9, §10

[8] = system: P. acnes NCTC 737; assay: Supplemented disc diffusion assay; assay type: cell-based, Propionibacterium acnes; settings: for DDA + lipid / DDA + salt: P. acnes NCTC 737, 200 μg per disc (2,6-dimethoxy-p-benzoquinone 100 μg); for DDA + lipid: Tween 80 at 1% v/v; for DDA + salt: sodium chloride 100 mM; for zone of inhibition at 200 µg/disc: Cutibacterium acnes, NCTC737, 72 h
Experimental: as §12, §8, §11, §13, §10

[9] = S. aureus ATCC 29213, Mueller-Hinton broth pH 7.2, aerobic, 37° C., 24 hours
[10] = P. acnes NCTC 737, Wilkins-Chalgren broth pH 6.0, anaerobic, 37° C., 72 hours
[11] = Staphylococcus aureus, ATCC29213, 24 h, pH 7.2
[12] = Staphylococcus aureus, ATCC29213
[13] = Cutibacterium acnes, NCTC737, 72 h, pH 6

Compound	MIC [1, 9] [µg/mL]	MBC [2] [µg/mL]	MIC/MBC ratio [2]	DDA (diameter of zone of inhibition) [3] [mm]	DDA + lipid [4] [mm]	DDA + blood [4] [mm]	DDA + salt [4] [mm]	MIC [5, 10] [µg/mL]	MBC ([6]; P. acnes NCTC 737) [µg/mL]	MIC/MBC ratio ([6]; P. acnes NCTC 737)	DDA (diameter of zone of inhibition) [7] [mm]	DDA + lipid [8] [mm]	DDA + salt [8] [mm]	activity against S. aureus ATCC 29213 (in words) [1]	MIC [1, 11] [µg/mL]	MBC [2, 12] [µg/mL]	zone of inhibition at 200 µg/disc [3] [mm]	zone of inhibition at 200 µg/disc ([4]; read-out: DDA + blood) [mm]	zone of inhibition at 200 µg/disc ([4]; read-out: DDA + lipid) [mm]	zone of inhibition at 200 µg/disc ([4]; read-out: DDA + salt) [mm]	further results
CCCCCCOc1cc(C)c(O)c(C)c1C [1-o-hexyl-2,3,5-trimethyl-p-hydroquinone]	3.9 (≈ 16.5 µM)	7.8 (≈ 33 µM)	0.5	8.61	0.0	0.0	8.72	15.6 (≈ 66 µM)	31.25 (≈ 132 µM)	0.5	16.64	0.0	16.43								
COC1=CC(=O)C=C(OC)C1=O [2,6-dimethoxy-p-benzoquinone]			0.5							0.5				strongly so	7.8 (≈ 46.4 µM)	15.6 (≈ 92.8 µM)	22.2	17.2	23.7	22.2	MIC [5, 13]: 15.6 µg/mL (≈ 92.8 µM); MBC ([6]; Cutibacterium acnes, NCTC737): 31.2 µg/mL (≈ 186 µM); zone of inhibition at 200 µg/disc [7]: 0 mm; zone of inhibition at 200 µg/disc ([8]; read-out: DDA + lipid): 15.6 mm; zone of inhibition at 200 µg/disc ([8]; read-out: DDA + salt): 16.5 mm
CC1=C(Br)C(=O)C(C(C)C)=C(Br)C1=O [2,5-dibromo-6-isopropyl-3-methyl-p-benzoquinone]			0.5							0.25				strongly so	0.98 (≈ 3.04 µM)	1.95 (≈ 6.06 µM)	39.5	19.3	23	42.3	activity against P. acnes NCTC 737 (in words) [5]: strongly so; MIC [5, 13]: 0.98 µg/mL (≈ 3.04 µM); MBC ([6]; Cutibacterium acnes, NCTC737): 3.9 µg/mL (≈ 12.1 µM); zone of inhibition at 200 µg/disc [7]: > 90 mm; zone of inhibition at 200 µg/disc ([8]; read-out: DDA + lipid): 34.7 mm; zone of inhibition at 200 µg/disc ([8]; read-out: DDA + salt): 71.2 mm
Oc1c(Cl)c(Cl)c(O)c(Cl)c1Cl [tetrachloro-p-hydroquinone]	125 (≈ 504 µM)	125 (≈ 504 µM)	1	16.25	14.69	9.38	16.88	31.25 (≈ 126 µM)	31.25 (≈ 126 µM)	1	25.37	0.0	28.27								
